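Compound exposure: 48 hours, 5 concentrations, 96-well plates. At the GI50, growth is halved.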 Activity calls are given as the source filed them. Cut-off read from the data, not from the text of the source: active = GI50 up to about 1.1 µM and inactive = higher.
Experiments:
Assay in all cases: NCI tumour cell line growth inhibition, 48 h
[1] = tested on: 786-0
[2] = tested on: A498
[3] = tested on: A549
[4] = tested on: ACHN
[5] = tested on: BT-549
[6] = tested on: CAKI-1
[7] = tested on: CCRF-CEM
[8] = tested on: COLO 205
[9] = tested on: DU-145
[10] = tested on: EKVX
[11] = tested on: HCC 2998
[12] = tested on: HCT-116
[13] = tested on: HCT-15
[14] = tested on: HL-60
[15] = tested on: HOP-62
[16] = tested on: HT-29
[17] = tested on: Hs-578T
[18] = tested on: IGROV-1
[19] = tested on: K562
[20] = tested on: KM12
[21] = tested on: M14
[22] = tested on: MCF7
[23] = tested on: MDA-MB-231
[24] = tested on: MDA-N
[25] = tested on: MOLT-4
[26] = tested on: Malme-3M
[27] = tested on: NCI-H226
[28] = tested on: NCI-H23
[29] = tested on: NCI-H460
[30] = tested on: NCI-H522
[31] = tested on: NCI/ADR-RES
[32] = tested on: OVCAR-3
[33] = tested on: OVCAR-4
[34] = tested on: OVCAR-5
[35] = tested on: OVCAR-8
[36] = tested on: PC-3
[37] = tested on: SF-268
[38] = tested on: SF-295
[39] = tested on: SF-539
[40] = tested on: SK-MEL-28
[41] = tested on: SK-MEL-2
[42] = tested on: SK-MEL-5
[43] = tested on: SK-OV-3
[44] = tested on: SN12C
[45] = tested on: SNB-19
[46] = tested on: SNB-75
[47] = tested on: SR
[48] = tested on: SW-620
[49] = tested on: T47D
[50] = tested on: TK-10
[51] = tested on: U-251
[52] = tested on: UACC-257
[53] = tested on: UACC-62
[54] = tested on: UO-31
[55] = tested on: HOP-92
[56] = tested on: MDA-MB-435
[57] = tested on: RXF 393

In the case of `O=C(Nc1ccc(Br)c2ccccc12)c1ccc2ccccc2c1O`, the GI50 [1] is reported as 3.94 µM (inactive), the GI50 [2] is reported as 2.52 µM (inactive) and the GI50 [3] is reported as 1.77 µM (inactive). For the same compound, the GI50 [4] was 3.09 µM (inactive), the GI50 [5] was 2.83 µM (inactive) and the GI50 [6] was 3.95 µM (inactive). The GI50 [7] was 2.86 µM (inactive), the GI50 [8] was 2.11 µM (inactive) and the GI50 [9] was 3.89 µM (inactive). For the same compound, the GI50 [10] was 3.13 µM (inactive), the GI50 [11] was 5.64 µM (inactive) and the GI50 [12] was 2.85 µM (inactive). The GI50 [13] was 2.26 µM, the GI50 [14] was 3.64 µM (inactive) and the GI50 [15] was 2.32 µM (inactive). The GI50 [16] was 3.67 µM (inactive), the GI50 [17] was 2.79 µM (inactive) and the GI50 [18] was 2.9 µM (inactive). The GI50 [19] was 2.55 µM (inactive), the GI50 [20] was 2.9 µM (inactive) and the GI50 [21] was 4.63 µM (inactive). The GI50 [22] was 2.73 µM (inactive), the GI50 [23] was 3.27 µM (inactive) and the GI50 [24] was 1.7 µM (inactive). The GI50 [25] was 2.32 µM (inactive), the GI50 [26] was 1.36 µM (inactive) and the GI50 [27] was 1.87 µM (inactive). For the same compound, the GI50 [28] was 1.9 µM (inactive), the GI50 [29] was 2.23 µM (inactive) and the GI50 [30] was 1.71 µM (inactive). The GI50 [31] was 2.72 µM (inactive), the GI50 [32] was 3.37 µM (inactive) and the GI50 [33] was 19.4 µM (inactive). The GI50 [34] was 2.75 µM (inactive), the GI50 [35] was 3.86 µM (inactive) and the GI50 [36] was 1.35 µM (inactive). For the same compound, the GI50 [37] was 3.87 µM (inactive), the GI50 [38] was 2.05 µM (inactive) and the GI50 [39] was 5.16 µM (inactive). For the same compound, the GI50 [40] was 4.7 µM (inactive), the GI50 [41] was 0.597 µM (active) and the GI50 [42] was 1.61 µM (inactive). The GI50 [43] was 2.75 µM (inactive), the GI50 [44] was 3.39 µM (inactive) and the GI50 [45] was 4.17 µM (inactive). For the same compound, the GI50 [46] was 2.3 µM (inactive), the GI50 [47] was 6.44 µM (inactive) and the GI50 [48] was 2.26 µM (inactive). The GI50 [49] was 1.73 µM (inactive), the GI50 [50] was 3.19 µM (inactive) and the GI50 [51] was 1.73 µM (inactive). For the same compound, the GI50 [52] was 1.95 µM (inactive), the GI50 [53] was 1.82 µM (inactive) and the GI50 [54] was 2.51 µM (inactive).

With `CCCCCCCC(CC(=O)NC(CO)C(=O)NC(CO)CC(C)C)OC(=O)CC(CCCCCCC)OC(=O)CC(CCCCCCC)OC1OC(C)C(O)C(OC2OC(C)C(O)C(O)C2OC(C)=O)C1O` (stereo not drawn) the GI50 [1] was 5 µM (inactive), the GI50 [2] was 15.8 µM (inactive) and the GI50 [3] was 12.3 µM (inactive). The GI50 [4] was 15.5 µM (inactive), the GI50 [5] was 12.5 µM (inactive) and the GI50 [6] was 14.7 µM (inactive). For the same compound, the GI50 [7] was 3.15 µM (inactive), the GI50 [8] was 2.04 µM (inactive) and the GI50 [9] was 10.6 µM (inactive). The GI50 [10] was 14.3 µM (inactive), the GI50 [11] was 12.5 µM (inactive) and the GI50 [12] was 3.94 µM (inactive). The GI50 [14] was 3 µM (inactive), the GI50 [15] was 12.9 µM (inactive) and the GI50 [55] was 10.2 µM (inactive). The GI50 [16] was 3.6 µM (inactive), the GI50 [17] was 4.51 µM (inactive) and the GI50 [18] was 10.9 µM (inactive). For the same compound, the GI50 [19] was 4.13 µM (inactive), the GI50 [20] was 2.74 µM (inactive) and the GI50 [21] was 5.69 µM (inactive). For the same compound, the GI50 [22] was 10.5 µM (inactive), the GI50 [23] was 9.38 µM (inactive) and the GI50 [56] was 2.75 µM (inactive). For the same compound, the GI50 [24] was 3.46 µM (inactive), the GI50 [25] was 2.54 µM (inactive) and the GI50 [26] was 10.9 µM (inactive). For the same compound, the GI50 [27] was 20.5 µM (inactive), the GI50 [28] was 7.8 µM (inactive) and the GI50 [29] was 4.07 µM (inactive). For the same compound, the GI50 [30] was 12.6 µM (inactive), the GI50 [32] was 12.9 µM (inactive) and the GI50 [33] was 5.64 µM (inactive). The GI50 [34] was 10.3 µM (inactive), the GI50 [35] was 7.35 µM (inactive) and the GI50 [36] was 4.06 µM (inactive). The GI50 [57] was 2.14 µM (inactive), the GI50 [37] was 5.89 µM (inactive) and the GI50 [38] was 10 µM (inactive). The GI50 [39] was 11.1 µM (inactive), the GI50 [40] was 9.64 µM (inactive) and the GI50 [42] was 10.1 µM (inactive). For the same compound, the GI50 [43] was 16.6 µM (inactive), the GI50 [44] was 4.47 µM (inactive) and the GI50 [45] was 8.26 µM (inactive). For the same compound, the GI50 [46] was 4.29 µM (inactive), the GI50 [47] was 2.14 µM (inactive) and the GI50 [48] was 8.75 µM (inactive). The GI50 [49] was 6.52 µM (inactive), the GI50 [50] was 13.3 µM (inactive) and the GI50 [51] was 7.03 µM (inactive). The GI50 [52] was 2.99 µM (inactive), the GI50 [53] was 5.9 µM (inactive) and the GI50 [54] was 16.9 µM (inactive).
